Data reported in PubChem BioAssay AID1418 (Emory University Molecular Libraries Screening Center, 2008).
Active and inactive are the calls of the source. How the calls were made is not given here.

biological target: Induced myeloid leukemia cell differentiation protein Mcl-1 (Homo sapiens) (UniProt Q07820); assay: blockers of Bid binding to Mcl-1 – biochemical, TR-FRET, dose response (AID 1418); settings: Mcl-1/Bid peptide binding, TR-FRET (europium/Dy647), 2 hr
Sequence (Q07820 whole entry, looked up): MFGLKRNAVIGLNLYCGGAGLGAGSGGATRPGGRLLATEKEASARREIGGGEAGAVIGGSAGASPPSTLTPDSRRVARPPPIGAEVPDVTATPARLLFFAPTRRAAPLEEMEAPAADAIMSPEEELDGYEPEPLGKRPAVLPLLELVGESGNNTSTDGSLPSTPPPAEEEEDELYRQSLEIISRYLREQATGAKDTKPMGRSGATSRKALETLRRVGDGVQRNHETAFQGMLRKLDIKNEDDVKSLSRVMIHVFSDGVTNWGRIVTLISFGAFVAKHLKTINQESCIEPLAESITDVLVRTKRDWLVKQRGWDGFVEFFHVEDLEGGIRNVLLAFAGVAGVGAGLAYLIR

Structure (SMILES) | IC50
CCN(CC)S(=O)(=O)c1ccc(NC(=O)Nc2cccc(C(F)(F)F)c2)cc1 | > 54 µM (inactive)
CN(C)C(=O)/C(C#N)=C\c1cc(Br)c(Sc2ccc(Cl)cc2)o1 | > 54 µM (inactive)
CC(=O)OCCn1c2nc(=O)[nH]c(=O)c-2nc2cc(C)c(C)cc21 | 18.8 µM
O=C(CSc1nc(-c2ccccc2)cc(C(F)(F)F)n1)N1CCOCC1 | > 54 µM (inactive)
CCN(CCNC(=O)CN1CCN(Cc2ccc(Cl)cc2)C1=O)c1ccccc1 | > 54 µM (inactive)
CCCc1cc(=O)[nH]c(SCC(=O)c2c(C)[nH]c3ccccc23)n1 | > 54 µM (inactive)
CN(Cc1ccccc1)Cc1nc2c([nH]1)c(=O)[nH]c(=O)n2C | > 54 µM (inactive)
CCN(CC)c1ccc(NC(=O)Cn2ncc3c(C)n(Cc4ccccc4F)c(C)c3c2=O)c(C)c1 | 0.53 µM
CN(C)c1ccc(-c2nn3c(-c4ccc(Cl)cc4Cl)nnc3s2)cc1 | 0.77 µM
C#CCOCCOCCOCCNc1nc(N2CCN(C(=O)[C@H](Cc3cc4ccccc4[nH]3)n3cc([C@@H](N)CC(C)C)nn3)CC2)nc(N2CCN(C(=O)[C@H](Cc3cc4ccccc4[nH]3)n3cc([C@@H](N)CC(C)C)nn3)CC2)n1 | 24.2 µM
O=C(/C=C/N1CCOCC1)c1cc2ccccc2o1 | > 54 µM (inactive)
O=C(N[C@@H](Cc1ccccc1)C(=O)O)c1ccncc1 | > 54 µM (inactive)
Cc1ccc2nc(N3CC(=O)Nc4ccccc43)nc(-c3ccccc3)c2c1 | > 54 µM (inactive)
CCN(CC)C(=O)CN(C)S(=O)(=O)c1cccc2nsnc12 | > 54 µM (inactive)
COc1ccc(CCNC(=O)COC(=O)Cc2ccccc2)cc1 | > 54 µM (inactive)
CCN(CC)c1ccc(NC(=O)Cn2c(C(C)NC(=O)c3ccc(C)cc3)nc3ccccc32)cc1 (configuration not stated) | 0.9 µM
Cc1ccc(-c2nnc(N3CC(C)OC(C)C3)c3ccccc23)cc1 (configuration not stated) | > 54 µM (inactive)
O=C(/C=C/Nc1cccc(F)c1)c1ccco1 | > 54 µM (inactive)
CNC(=O)C(=O)NCCN1CCN(C(=O)c2ccc([N+](=O)[O-])cc2)CC1 | > 54 µM (inactive)
COc1cc(OC)cc(C(=O)N2CCN(Cc3ccccc3C(F)(F)F)CC2)c1 | inactive
Oc1[nH]c2ccccc2c1/C=N/N1CCCCC1 | > 54 µM (inactive)
CNC(=O)CC1C(=O)N(c2ccc(OC)cc2)C(=S)N1NC(=O)c1cccc(F)c1 (configuration not stated) | > 54 µM (inactive)
S=C(NCc1ccc(Cl)cc1)NC1CCN(Cc2ccccc2)CC1 | > 54 µM (inactive)
O=C(O)COc1ccc(/C=N/NC(=O)c2ccc(-c3csc(Nc4ccc(Cl)cc4)n3)cc2)cc1 | 1.43 µM
COc1ccc(-c2nc(-n3c(C)c(C(C)=O)c(C(C)=O)c3C)sc2C)cc1 | > 54 µM (inactive)

Structure (SMILES) | IC50
CN(CCOC(=O)C1c2ccccc2Oc2ccccc21)C(C)(C)C | > 54 µM (inactive)
COc1ccc(C(=O)Nc2cccc(C)c2)cc1S(=O)(=O)N1CCOCC1 | > 54 µM (inactive)
Cc1cc(O)ccc1N/C=C(\C#N)c1nc2ccccc2o1 | > 54 µM (inactive)
O=C1CSC(=S)N1/N=C/c1ccc(O)c(O)c1O | 1.17 µM
Cc1[nH]n2c(=O)c3c(nc2c1-c1ccc(F)cc1)CCCC3 | > 54 µM (inactive)
FC(F)(F)c1cccc(N/N=C/c2ccccc2)c1 | > 54 µM (inactive)
CCN1C(=O)/C(=C/c2cccs2)SC1=Nc1ccc(OC)cc1 | > 54 µM (inactive)
C=CCOC(=O)/C(=C/c1ccco1)NC(=O)/C=C/c1ccccc1 | > 54 µM (inactive)
O=C1/C(=C/C=C/c2ccco2)SC(=S)N1NS(=O)(=O)c1ccccc1 | 2.31 µM
Cc1c(C(=O)N/N=C/c2ccc(-c3ccccc3[N+](=O)[O-])o2)sc(N)c1C#N | 14.1 µM
Oc1cc2c(cc1C(c1ccc(Cl)c(Cl)c1)N1CCCC1)OCO2 (configuration not stated) | 0.59 µM
Cc1ccc(NC(=O)C(=O)NCc2ccc(/C=C(/C#N)C(=O)NCc3cccnc3)o2)cc1C | > 54 µM (inactive)
S=C(NNc1ccnc2cc(Cl)ccc12)Nc1ccc(Cl)cc1Cl | 2.22 µM
O=C(O)CCC(=O)NCCC1=c2ccccc2=N/C1=C\c1c(O)n(Cc2ccc(F)cc2)c(=S)[nH]c1=O | 2.51 µM
COc1ccc(NC(=O)CN2CCOCC2)cc1 | > 54 µM (inactive)
Cc1ccc2nc(-c3ccc(SCC(=O)Nc4nnc(C)s4)nc3)[nH]c2c1 | 8.48 µM
COc1ccc(CN2C(=O)c3cccnc3C2Nc2ccc(OC)c(Cl)c2)cc1 (configuration not stated) | 0.74 µM
O=C(Nc1cnn(C23CC4CC(CC(C4)C2)C3)c1)c1cnn2c(C(F)(F)F)cc(-c3ccco3)nc12 | 1.38 µM
CC(=O)c1ccc(NC(=S)NNC(=O)c2ccncc2)cc1 | > 54 µM (inactive)
CCOC(=O)c1cc(C#N)c(SCC(=O)OC)[nH]c1=O | > 54 µM (inactive)
Cc1ccc2cccc(Oc3ncnc4scc(-c5ccc(Cl)cc5)c34)c2n1 | > 54 µM (inactive)
CC1(c2ccccc2)CC(C)(C)N2C(=O)/C(=C3\SC(=S)NC3=O)c3cccc1c32 (configuration not stated) | 2.16 µM
C/C(=N/NC(=O)c1ccccn1)c1ccc(O)cc1 | > 54 µM (inactive)
Cc1c([N+](=O)[O-])c(C(=O)Nc2ccc3c(c2)OCCO3)nn1C | > 54 µM (inactive)
Cc1ccc(N2CCN(C3=NC(=O)/C(=C\c4cccs4)S3)CC2)cc1 | > 54 µM (inactive)

Structure (SMILES) | IC50
O=C(CSc1nnc(SCc2cccc3ccccc23)s1)N=Nc1c(O)[nH]c2ccccc12 | 3.51 µM
O=C1NN(c2ccc(Cl)c(Cl)c2)C(=O)/C1=C/c1cccc(OC(=O)c2cccs2)c1 | 6.57 µM
COc1ccc(NC(=S)NNc2ccc(S(=O)(=O)Nc3ccccc3C(=O)O)cc2[N+](=O)[O-])cc1 | 22.3 µM
O=P(O)(O)C#Cc1ccccc1 | > 54 µM (inactive)
CSc1nc(SCCO)c2sc3nc(-c4ccco4)c4c(c3c2n1)CC(C)(C)OC4 | 7.5 µM
CCc1ccc2c(CN(CC)Cc3nc4ccccc4c(=O)[nH]3)cc(=O)oc2c1 | > 54 µM (inactive)
O=C(CCN1CCc2ccccc2C1)Nc1cccc(F)c1 | > 54 µM (inactive)
CN1C(=O)/C(=C2\SC(=S)N(CCCCCC(=O)O)C2=O)c2ccccc21 | 29.4 µM
O=C(O)/C=C\C(=O)N1CCc2ccccc21 | > 54 µM (inactive)
Nc1ccc(C(=O)N/N=C\c2cc(N=Nc3cccc4ccccc34)ccc2O)cc1 | 12 µM
COc1ccc(CN2CCN(c3ccccc3F)CC2)cc1O | > 54 µM (inactive)
COc1cccc(OC)c1C(=O)N1CCN(Cc2ccncc2)CC1 | > 54 µM (inactive)
Cc1n[nH]c(=S)c2nn(-c3ccccc3)c(C)c12 | > 54 µM (inactive)
O=[N+]([O-])c1ccc(-c2cn(-c3ccc(Cl)cc3)c(=S)[nH]2)cc1 | > 54 µM (inactive)
CN(NC(=O)COc1ccccc1)c1ccccc1 | > 54 µM (inactive)
CC(=O)Cc1nsc(NC(=O)c2ccc(-c3cc(C(F)(F)F)ccc3Cl)o2)n1 | > 54 µM (inactive)
CN(c1cccc(NC(=O)c2ccccc2N(C)S(C)(=O)=O)c1)S(C)(=O)=O | > 54 µM (inactive)
O=C(c1ccco1)N1C(=O)c2cccc3c(S(=O)(=O)N4CCCC4)ccc1c23 | > 54 µM (inactive)
COC(=O)C(Cc1csc2ccc(Cl)cc12)NC(=O)c1ccc(Cl)cc1 (configuration not stated) | > 54 µM (inactive)
COc1ccccc1C(=O)NC(=S)NNC(=O)c1sc2ccccc2c1Cl | 1.7 µM
Cc1cccc(C(=O)N2CCc3cc(-c4nc(NC(=O)Cn5nnc6ccccc6c5=O)sc4C)ccc32)c1 | > 54 µM (inactive)
Cc1nn(-c2ccccc2C(=O)O)c(=O)c2ccccc12 | > 54 µM (inactive)
Clc1ccc(OCCN2CCCCC2)c(Cl)c1 | > 54 µM (inactive)
Cc1ccc(C(=O)CN(C(=O)c2ccc(Cl)c(Cl)c2)N2C(=O)C3C4C=CC(C4)C3C2=O)cc1 (configuration not stated) | > 54 µM (inactive)
COc1ccc2nc(C)cc(SCC(=O)Nc3c(C)cccc3C)c2c1 | 10.5 µM

Structure (SMILES) | IC50
COc1ccccc1CN1CCN(C(=O)Cc2ccccc2)CC1 | > 54 µM (inactive)
N#Cc1c2nc3ccccc3nc2n2cc(NC(=O)c3ccc(F)cc3)ccc12 | 0.71 µM
CC(C)N(C(=O)c1sc2cc([N+](=O)[O-])ccc2c1Cl)C(C)C | > 54 µM (inactive)
Cc1ccc(CSc2nnc(SCC(=O)N/N=C/c3c[nH]c4ccccc34)s2)cc1 | 0.53 µM
O=C(N/N=C/C=C/c1ccc([N+](=O)[O-])cc1)c1cccs1 | inactive
CCCOc1ccc(C(=O)NCC(c2ccco2)N(C)C)cc1OC (configuration not stated) | > 54 µM (inactive)
O=C(Nc1ccc2c(c1)OCCO2)NC1(C(F)(F)F)Oc2ccccc2O1 | > 54 µM (inactive)
COc1ccc(NC(=O)c2[nH]ncc2[N+](=O)[O-])cc1 | > 54 µM (inactive)
O=c1cc(-c2ccc([N+](=O)[O-])cc2)nc2cc(-c3ccc(Cl)cc3)[nH]n12 | 4.96 µM
O=C(/C=C/N1CCOCC1)c1coc2ccccc12 | > 54 µM (inactive)
O=C(COC(=O)c1cc[n+]([O-])cc1)Nc1ccccc1Cl | > 54 µM (inactive)
CCOc1ccc(-c2csc3ncn(-c4ccc(OC)cc4)c(=O)c23)cc1 | > 54 µM (inactive)
CCOc1cc(N2CCOCC2)c(OCC)cc1NC(=O)CN1CCc2ccccc2C1 | > 54 µM (inactive)
Cn1c(SCC(=O)N=Nc2c(O)[nH]c3ccccc23)nc2ccccc21 | > 54 µM (inactive)
N=C1S/C(=C\c2ccc(-c3cccc(Cl)c3)o2)C(=O)N1c1nccs1 | 1.05 µM
O=C(CSc1nnc(COc2cccc3cccnc23)o1)N1CCc2ccccc21 | inactive
C=CCn1c(O)c(N=NC(=O)CNC(=O)/C=C/c2ccc(OC)cc2)c2ccccc21 | > 54 µM (inactive)
C#CCOCCOCCOCCNc1nc(N2CCN(C(=O)[C@H](CCC(=O)O)n3cc(C(N)CC(C)C)nn3)CC2)nc(N2CCN(C(=O)[C@H](CCC(=O)O)n3cc(C(N)CC(C)C)nn3)CC2)n1 (some centres not stated) | 15.2 µM
Cc1ccc(S(=O)(=O)CCC(=O)OCC(=O)Nc2ncc(Cl)cc2Cl)cc1 | > 54 µM (inactive)
Oc1c(C(c2ccc(Cl)cc2)N2CCCC2)cc(Cl)c2cccnc12 (configuration not stated) | 1.16 µM
COc1cccc(NC(=O)CSc2nc3ccccc3n2C)c1 | > 54 µM (inactive)
CC(Sc1nnc2c(n1)C1CCC2(C)C1(C)C)C(=O)Nc1ccccc1 (configuration not stated) | > 54 µM (inactive)
